Measurements reported in article PMC4547793, “Trichodysplasia spinulosa-Associated Polyomavirus Uses a Displaced Binding Site on VP1 to Engage Sialylated Glycolipids” (PLoS Pathogens, 2015).

Experiments:
Assay type in all cases: binding
TSPyV VP1 [1] = target: T1, TSPyV VP1 (Trichodysplasia spinulosa-associated polyomavirus, UniProt E2ESL7); assay: X-ray co-crystal structure ([…] Å); also STD NMR; settings: 10 mM glycan, co-crystallization, 20 °C, reservoir pH 5.0; STD NMR pH 7.4, 288 K; BC2-loop site with ccw DE-loop
T1 construct: N- and C-terminally truncated VP1 (aa 31-304), pET28b, E. coli BL21(DE3); unassembled homopentamer

TSPyV VP1 [2] = target: T1, TSPyV VP1; assay: X-ray co-crystal structure ([…] Å); settings: 10 mM glycan, co-crystallization, 20 °C, reservoir pH 5.0; BC2-loop site with ccw DE-loop
TSPyV VP1 [3] = target: T1, TSPyV VP1; assay: X-ray crystal structure, soaked ([…] Å); settings: 10 mM glycan, 15 min soak of native crystals, reservoir pH 5.0; BC2-loop site with ccw DE-loop

CC(=O)N[C@H]1[C@H](O[C@@H]2[C@H](O[C@]3(C(=O)O)C[C@H](O)[C@@H](NC(C)=O)[C@H]([C@H](O)[C@H](O)CO)O3)[C@@H](O)[C@H](O[C@H]3[C@H](O)[C@@H](O)C(O)O[C@@H]3CO)O[C@@H]2CO)O[C@H](CO)[C@H](O)[C@@H]1O[C@@H]1O[C@H](CO)[C@H](O)[C@H](O)[C@H]1O (stereo partly drawn) [GM1 glycan]
X-ray co-crystal structure (1.50 Å); also STD NMR (TSPyV VP1 [1]): 4U60 (TSPyV VP1-GM1 glycan)

CC(=O)N[C@H]1[C@H]([C@H](O)[C@H](O)CO)O[C@@](OC[C@H]2O[C@@H](O[C@H]3[C@H](O)[C@@H](O)C(O)O[C@@H]3CO)[C@H](O)[C@@H](O)[C@H]2O)(C(=O)O)C[C@@H]1O (stereo partly drawn) [6’SL]
X-ray co-crystal structure (1.65 Å) (TSPyV VP1 [2]): 4U61 (TSPyV VP1-6’SL)

CC(=O)N[C@H]1[C@H]([C@H](O)[C@H](O)CO)O[C@@](O[C@H]2[C@@H](O)[C@@H](CO)O[C@@H](O[C@H]3[C@H](O)[C@@H](O)C(O)O[C@@H]3CO)[C@@H]2O)(C(=O)O)C[C@@H]1O (stereo partly drawn) [3’SL]
X-ray crystal structure, soaked (1.55 Å) (TSPyV VP1 [3]): 4U62 (TSPyV VP1-3’SL)
